Assay results as given in ChEMBL document CHEMBL5150012, “N-Substituted Valiolamine Derivatives as Potent Inhibitors of Endoplasmic Reticulum α-Glucosidases I and II with Antiviral Activity” (J Med Chem, 2021).

Assays:
SARS-CoV-2 = test: Antiviral activity against SARS-CoV-2 England/2/2022 assessed as reduction in viral infection; assay type: functional, organism-based; conditions: Severe acute respiratory syndrome coronavirus 2, England/2/2022
[1] = Inhibition of full length human recombinant Endoplasmic reticulum alpha-glucosidase 1 expressed in Escherichia coli using trisaccharide as substrate incubated for 60 mins
[2] = Inhibition of full length N-terminal his6-tagged mouse recombinant Endoplasmic reticulum alpha-glucosidase 2 expressed in DH10 Escherichia coli using Fluorogenic 1,4-methyl-lumbelliferon as substrate preincubated for 60 mins followed by substrate addition and measured after 30 mins
Dengue virus type 2 = test: Antiviral activity against DENV New Guinea C strain infected in African green monkey Vero cells assessed as reduction in viral infection measured after 5 days by plaque assay; conditions: 120 h
[3] = Cytotoxicity against African green monkey Vero cells assessed as reduction in cell viability incubated for 3 to 5 days by Cell titer-glo luminescent assay; assay type: toxicity, cell-based; conditions: chlorocebus sabaeus, time 3-5 day
[4] = Selectivity index, ratio of CC50 for cytotoxicity against African green monkey Vero cells to IC50 for antiviral activity against DENV New Guinea C strain infected in African green monkey Vero cells; assay type: toxicity, cell-based; conditions: read-out: Ratio CC50/IC50

CCCCN1C[C@H](O)[C@@H](O)[C@H](O)[C@H]1CO
IC50 (SARS-CoV-2): 42.2 µM

O=[N+]([O-])c1cc(-n2nccn2)ccc1NCCCCCCN[C@H]1C[C@](O)(CO)[C@@H](O)[C@H](O)[C@H]1O
IC50 (SARS-CoV-2): > 100 µM
IC50 [1]: 0.0479 µM
IC50 [2]: < 0.001 µM
IC50 (Dengue virus type 2): 18.2 µM
CC50 [3]: 126 µM
selectivity ratio [4]: 6.9

[N-]=[N+]=Nc1ccc(NCCCCCCN[C@H]2C[C@](O)(CO)[C@@H](O)[C@H](O)[C@H]2O)c([N+](=O)[O-])c1
IC50 (SARS-CoV-2): 12.3 µM
IC50 [1]: 0.73 µM
IC50 [2]: 0.0337 µM
IC50 (Dengue virus type 2): 1.38 µM
CC50 [3]: 122 µM
selectivity ratio [4]: 88

COCCCCCCCCCN[C@H]1C[C@](O)(CO)[C@@H](O)[C@H](O)[C@H]1O
IC50 (SARS-CoV-2): 270 µM
IC50 [1]: 10.8 µM
IC50 [2]: 0.49 µM
IC50 (Dengue virus type 2): 75.9 µM
CC50 [3]: 1070 µM

O=[N+]([O-])c1cc(-n2cnnn2)ccc1NCCCCCCN[C@H]1C[C@](O)(CO)[C@@H](O)[C@H](O)[C@H]1O
IC50 [1]: 32 µM
IC50 [2]: 1.42 µM
IC50 (Dengue virus type 2): > 1000 µM
CC50 [3]: 1360 µM

[N-]=[N+]=Nc1ccc(NCCOCCN[C@H]2C[C@](O)(CO)[C@@H](O)[C@H](O)[C@H]2O)c([N+](=O)[O-])c1
IC50 [1]: 3.66 µM
IC50 [2]: 37 µM
IC50 (Dengue virus type 2): 293 µM
CC50 [3]: 1750 µM

[N-]=[N+]=Nc1ccc(NCCCCN[C@H]2C[C@](O)(CO)[C@@H](O)[C@H](O)[C@H]2O)c([N+](=O)[O-])c1
IC50 (SARS-CoV-2): 9.48 µM
IC50 [1]: 2.42 µM
IC50 [2]: 1.01 µM
IC50 (Dengue virus type 2): 61.4 µM
CC50 [3]: 1020 µM

CCCCN[C@H]1C[C@](O)(CO)[C@@H](O)[C@H](O)[C@H]1O
IC50 [1]: 29.5 µM
IC50 (Dengue virus type 2): 158 µM
CC50 [3]: > 1000 µM

O=[N+]([O-])c1cc(-n2ccnn2)ccc1NCCCCCCN[C@H]1C[C@](O)(CO)[C@@H](O)[C@H](O)[C@H]1O
IC50 (SARS-CoV-2): 292 µM
IC50 [1]: 1.27 µM
IC50 [2]: 0.0155 µM
IC50 (Dengue virus type 2): 13.5 µM
CC50 [3]: 1380 µM
selectivity ratio [4]: 102

O=[N+]([O-])c1cc(-c2ncccn2)ccc1NCCCCCCN[C@H]1C[C@](O)(CO)[C@@H](O)[C@H](O)[C@H]1O
IC50 (SARS-CoV-2): 70 µM
IC50 [1]: 0.644 µM
IC50 [2]: 0.0011 µM
IC50 (Dengue virus type 2): 105 µM
CC50 [3]: 762 µM

[N-]=[N+]=Nc1ccc(NCCOC(=O)NCCN[C@H]2C[C@](O)(CO)[C@@H](O)[C@H](O)[C@H]2O)c([N+](=O)[O-])c1
IC50 (SARS-CoV-2): 53.7 µM
IC50 [1]: 1.13 µM
IC50 (Dengue virus type 2): > 1000 µM
CC50 [3]: > 1000 µM

N[C@H]1C[C@](O)(CO)[C@@H](O)[C@H](O)[C@H]1O [VALIOLAMINE]
IC50 (SARS-CoV-2): > 1000 µM
IC50 [1]: 87.4 µM
IC50 [2]: > 100 µM
IC50 (Dengue virus type 2): > 1000 µM
CC50 [3]: 831 µM
